Test results: ChEMBL document CHEMBL1201862, “PubChem BioAssay data set” (2004)
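Grown in 96-well plates, cells were treated for 48 hours with each compound at five concentrations. Insufficient inhibition: endpoint recorded as highest concentration tested. GI50 = concentration required for 50% inhibition of growth.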 Calls of active or inactive are those of the source. Cut-off read from the data, not from the text of the source: active = GI50 up to about 1.1 µM and inactive = higher.

Columns and labels:
Test in all cases: NCI-60 cell line screen, 48 h
SK-MEL-2 = tested on: SK-MEL-2
TK-10 = tested on: TK-10
Hs-578T = tested on: Hs-578T
T47D = tested on: T47D
OVCAR-3 = tested on: OVCAR-3
OVCAR-8 = tested on: OVCAR-8
K562 = tested on: K562
NCI-H23 = tested on: NCI-H23
SK-MEL-5 = tested on: SK-MEL-5
U-251 = tested on: U-251
EKVX = tested on: EKVX
MDA-N = tested on: MDA-N
OVCAR-4 = tested on: OVCAR-4
RPMI-8226 = tested on: RPMI-8226
SNB-75 = tested on: SNB-75
LOX IMVI = tested on: LOX IMVI
MCF7 = tested on: MCF7
SW-620 = tested on: SW-620
DU-145 = tested on: DU-145
SNB-78 = tested on: SNB-78

SMILES	GI50 (SK-MEL-2)	GI50 (TK-10)	GI50 (Hs-578T)	GI50 (T47D)	GI50 (OVCAR-3)	GI50 (OVCAR-8)	GI50 (K562)	GI50 (NCI-H23)	GI50 (SK-MEL-5)	GI50 (U-251)	GI50 (EKVX)	GI50 (MDA-N)	GI50 (OVCAR-4)	GI50 (RPMI-8226)	GI50 (SNB-75)	GI50 (LOX IMVI)	GI50 (MCF7)	GI50 (SW-620)	GI50 (DU-145)	GI50 (SNB-78)
Nc1nc(Cl)cc(NCC2(O)CC(CO)C2)n1 (stereo unspecified)	> 100 µM (inactive)	> 100 µM (inactive)	> 100 µM (inactive)	> 100 µM (inactive)	> 100 µM (inactive)	> 100 µM (inactive)	> 100 µM (inactive)	> 100 µM (inactive)	> 100 µM (inactive)	> 100 µM (inactive)	> 100 µM (inactive)	> 100 µM (inactive)	> 100 µM (inactive)	> 100 µM (inactive)	> 100 µM (inactive)	> 100 µM (inactive)	> 100 µM (inactive)	> 100 µM (inactive)	> 100 µM (inactive)	–
O=C(O)C12C3C4(C(=O)O)C1C1(C(=O)O)C2C3(C(=O)O)C41 (stereo unspecified)	> 100 µM (inactive)	> 100 µM (inactive)	> 100 µM (inactive)	> 100 µM (inactive)	> 100 µM (inactive)	> 100 µM (inactive)	< 0.01 µM (active)	> 100 µM (inactive)	> 100 µM (inactive)	> 100 µM (inactive)	> 100 µM (inactive)	> 100 µM (inactive)	> 100 µM (inactive)	> 100 µM (inactive)	> 100 µM (inactive)	> 100 µM (inactive)	> 100 µM (inactive)	> 100 µM (inactive)	> 100 µM (inactive)	–
COc1cc2oc(=O)cc(C)c2cc1[N+](=O)[O-]	12.4 µM (inactive)	35.7 µM (inactive)	28.2 µM (inactive)	20.7 µM (inactive)	25.4 µM (inactive)	18.8 µM (inactive)	22.4 µM (inactive)	21.3 µM (inactive)	27.3 µM (inactive)	37.4 µM (inactive)	> 59.4 µM (inactive)	14.7 µM (inactive)	35.1 µM (inactive)	27 µM (inactive)	57.5 µM (inactive)	12.2 µM (inactive)	25.5 µM (inactive)	23 µM (inactive)	33.1 µM (inactive)	–
Cc1ccc(C(=O)NC2C(=O)NC(C(C)C)C(=O)N3CCCC3C(=O)N(C)CC(=O)N(C)C(C(C)C)C(=O)OC2C)c2c1Oc1c(c(C(=O)NC3C(=O)NC(C(C)C)C(=O)N4CCCC4C(=O)N(C)CC(=O)N(C)C(C(C)C)C(=O)OC3C)c3nc(-c4ccccc4)c(=O)oc3c1C)N2 (stereo unspecified)	0.00112 µM (active)	0.0578 µM (active)	0.00134 µM (active)	0.00453 µM (active)	0.01 µM (active)	< 0.001 µM (active)	0.00312 µM (active)	0.00167 µM (active)	0.00177 µM (active)	< 0.001 µM (active)	0.00705 µM (active)	0.00348 µM (active)	0.151 µM (active)	0.00147 µM (active)	0.00101 µM (active)	< 0.001 µM (active)	< 0.001 µM (active)	0.004 µM (active)	0.00422 µM (active)	–
Cc1nc(O)nc(N/N=C/c2ccc(Cl)c(Cl)c2)c1C(=O)Nc1ccc(Cl)c(Cl)c1	17 µM (inactive)	11.5 µM (inactive)	10.5 µM (inactive)	24.7 µM (inactive)	9.62 µM (inactive)	4.27 µM (inactive)	11.5 µM (inactive)	13.1 µM (inactive)	9.59 µM (inactive)	6.81 µM (inactive)	30 µM (inactive)	15.7 µM (inactive)	3.62 µM (inactive)	41.3 µM (inactive)	12.3 µM (inactive)	15.1 µM (inactive)	18.5 µM (inactive)	12.9 µM (inactive)	12.6 µM (inactive)	–
CN(C)C(=N)c1ccccc1	> 100 µM (inactive)	> 100 µM (inactive)	–	–	> 100 µM (inactive)	> 100 µM (inactive)	–	> 100 µM (inactive)	–	> 100 µM (inactive)	–	–	> 100 µM (inactive)	–	> 100 µM (inactive)	> 100 µM (inactive)	–	> 100 µM (inactive)	–	> 100 µM (inactive)
Cc1nc2ccccn2c1/N=N/c1ccc(C(=O)NN)cc1	–	23 µM (inactive)	–	–	45 µM (inactive)	95.3 µM (inactive)	49.8 µM (inactive)	28.9 µM (inactive)	22.4 µM (inactive)	61.7 µM (inactive)	36.5 µM (inactive)	–	> 100 µM (inactive)	28.4 µM (inactive)	–	26.3 µM (inactive)	–	49.3 µM (inactive)	–	> 100 µM (inactive)
CCO[C@@H]1CCC([S+]([O-])c2ccc(C)cc2)=CO1 (stereo partly specified)	> 100 µM (inactive)	> 100 µM (inactive)	> 100 µM (inactive)	> 100 µM (inactive)	> 100 µM (inactive)	> 100 µM (inactive)	> 100 µM (inactive)	> 100 µM (inactive)	> 100 µM (inactive)	> 100 µM (inactive)	> 100 µM (inactive)	> 100 µM (inactive)	> 100 µM (inactive)	> 100 µM (inactive)	> 100 µM (inactive)	> 100 µM (inactive)	> 100 µM (inactive)	> 100 µM (inactive)	> 100 µM (inactive)	–
COc1cc(-c2c3c([nH]c(=O)c2C#N)-c2cc([N+](=O)[O-])ccc2CCC3)cc(OC)c1OC	17.9 µM (inactive)	34.8 µM (inactive)	13.3 µM (inactive)	14.1 µM (inactive)	15.5 µM (inactive)	17.8 µM (inactive)	18.9 µM (inactive)	17.4 µM (inactive)	12.9 µM (inactive)	23.6 µM (inactive)	24.4 µM (inactive)	21.1 µM (inactive)	21.5 µM (inactive)	9.08 µM (inactive)	21.7 µM (inactive)	15.1 µM (inactive)	17.4 µM (inactive)	40.5 µM (inactive)	25.8 µM (inactive)	–
C/C(=C\CO)CC[C@@H]1[C@@]2(C)CCCC(C)(C)[C@@H]2CC[C@@]1(C)O	17.6 µM (inactive)	17.5 µM (inactive)	24 µM (inactive)	18.2 µM (inactive)	13.9 µM (inactive)	16.2 µM (inactive)	16.5 µM (inactive)	20.5 µM (inactive)	17.9 µM (inactive)	17.3 µM (inactive)	24.8 µM (inactive)	18.7 µM (inactive)	17.3 µM (inactive)	17.2 µM (inactive)	17.7 µM (inactive)	16.1 µM (inactive)	17.1 µM (inactive)	22.7 µM (inactive)	18 µM (inactive)	–
O=C(O)CC[P+](c1ccccc1)(c1ccccc1)c1ccccc1	21.6 µM (inactive)	> 100 µM (inactive)	48.3 µM (inactive)	7.94 µM (inactive)	13.5 µM (inactive)	43.5 µM (inactive)	11.7 µM (inactive)	23.3 µM (inactive)	14.6 µM (inactive)	23.2 µM (inactive)	36.8 µM (inactive)	20.4 µM (inactive)	46.2 µM (inactive)	3.21 µM (inactive)	28.4 µM (inactive)	30.7 µM (inactive)	39 µM (inactive)	> 100 µM (inactive)	48.2 µM (inactive)	–
[O-][S+](c1ccccc1)C1CC2CC3(CCC21O)OCCO3 (stereo unspecified)	> 100 µM (inactive)	> 100 µM (inactive)	> 100 µM (inactive)	> 100 µM (inactive)	> 100 µM (inactive)	> 100 µM (inactive)	> 100 µM (inactive)	> 100 µM (inactive)	> 100 µM (inactive)	> 100 µM (inactive)	> 100 µM (inactive)	> 100 µM (inactive)	> 100 µM (inactive)	> 100 µM (inactive)	> 100 µM (inactive)	> 100 µM (inactive)	> 100 µM (inactive)	> 100 µM (inactive)	> 100 µM (inactive)	–
CC1(C)C=C(/C=C2/N(S(=O)(=O)C(F)(F)F)C(/C=C3/N(S(=O)(=O)C(F)(F)F)C(C)(C#N)CC3(C)C)=CC2(C)C)N=C1/C=C1/CC(C)(C)C(=O)N1 (stereo unspecified)	29.5 µM (inactive)	71.9 µM (inactive)	16.2 µM (inactive)	6.07 µM (inactive)	7.62 µM (inactive)	4.57 µM (inactive)	3.11 µM (inactive)	18.8 µM (inactive)	13.8 µM (inactive)	24.7 µM (inactive)	8.45 µM (inactive)	21.4 µM (inactive)	7.38 µM (inactive)	3.93 µM (inactive)	61.5 µM (inactive)	17.9 µM (inactive)	9.29 µM (inactive)	6.93 µM (inactive)	33.9 µM (inactive)	–
Cc1cc2c(cc1Cl)SC(NNC(=O)c1ccco1)=NS2(=O)=O	> 10 µM (inactive)	> 10 µM (inactive)	> 10 µM (inactive)	> 10 µM (inactive)	> 10 µM (inactive)	> 10 µM (inactive)	> 10 µM (inactive)	> 10 µM (inactive)	> 10 µM (inactive)	> 10 µM (inactive)	> 10 µM (inactive)	> 10 µM (inactive)	> 10 µM (inactive)	> 10 µM (inactive)	> 10 µM (inactive)	> 10 µM (inactive)	> 10 µM (inactive)	> 10 µM (inactive)	> 10 µM (inactive)	–
O=C(CCc1ccccc1)NCCc1ccc(O)c(O)c1	22 µM (inactive)	> 100 µM (inactive)	> 50.1 µM (inactive)	59.4 µM (inactive)	22.2 µM (inactive)	30.3 µM (inactive)	7.11 µM (inactive)	32.4 µM (inactive)	16.7 µM (inactive)	41.2 µM (inactive)	62.4 µM (inactive)	14.8 µM (inactive)	10.4 µM (inactive)	2.54 µM (inactive)	84.5 µM (inactive)	35.6 µM (inactive)	31.8 µM (inactive)	> 100 µM (inactive)	> 63.2 µM (inactive)	–
